Measured values as given in PubChem BioAssay (NCI).
Where “and” joins values, the source holds several entries; their conditions need not be identical. Equal entries are not always repeated.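 Values below derive from 48-hour exposures of cells grown in 96-well plates, with endpoints linearly interpolated between the two concentrations bracketing the appropriate inhibition level. GI50 = concentration required for 50% inhibition of growth. At the TGI there is no net growth.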

Key:
Assay in all cases: DTP human tumour cell line panel, 48 h
[1] = test system: K-562 leukemia
[2] = test system: NCI-H23 lung
[3] = test system: CCRF-CEM leukemia
[4] = test system: NCI-H522 lung
[5] = test system: RPMI-8226 leukemia
[6] = test system: HOP-92 NSCLC
[7] = test system: OVCAR-8 ovarian
[8] = test system: SW-620 colon
[9] = test system: SK-OV-3 ovarian
[10] = test system: KM12 colon

| SMILES | TGI [1] [µM] | GI50 [2] [µM] | GI50 [3] [µM] | GI50 [4] [µM] | TGI [4] | TGI [5] [µM] | TGI [6] [µM] | GI50 [7] [µM] | TGI [8] [µM] | GI50 [9] [µM] | GI50 [1] [µM] | TGI [2] [µM] | GI50 [10] [µM] | TGI [10] [µM] | TGI [3] [µM] | GI50 [5] [µM] | GI50 [6] [µM] | TGI [7] [µM] | GI50 [8] [µM] | TGI [9] [µM] |
| --- | --- | --- | --- | --- | --- | --- | --- | --- | --- | --- | --- | --- | --- | --- | --- | --- | --- | --- | --- | --- |
| CCOCC(=O)N[C@H]1CCc2cc(OC(=O)COCC)c(OC)c(OC)c2-c2ccc(SC)c(=O)cc21 | 0.0691 | 0.0337 | 0.0127 | 0.0279 | 0.0389 µM and 0.107 µM | > 100 | 0.08 | 0.0365 | > 100 | 0.0558 | – | – | – | – | – | – | – | – | – | – |
| CO/N=C(\COc1ccc2c(c1)oc(=O)c1cc(OC)ccc12)c1ccc(F)cc1 | 58.7 | 37.6 | 47.5 | 13 | 32.5 µM | > 100 | 37.4 | 26.7 | > 100 | 48.5 | 23.9 | > 100 | 33.7 | > 100 | > 100 | 32.8 | 14.4 | > 100 | 34.8 | > 100 |
| Oc1ccc2ccccc2c1C(c1ccc(Cl)cc1)c1c(O)ccc2ccccc12 | 10.6 | – | – | – | 5.17 µM | 5.21 | 4.89 | – | 18.4 | – | – | 19.1 | – | 7.87 | 7.46 | – | – | 19.9 | – | 19.9 |
| O=C(Nc1cccc([N+](=O)[O-])c1)c1ccc2ccccc2c1O | > 100 | 3.79 | 2.35 | 1.89 | 6.96 µM | 5.99 | 6.71 | 9.66 | > 100 | 7.05 | 2.79 | > 89.8 | 4.41 | > 81.2 | > 35.1 | 1.28 | 1.77 | > 100 | 6.8 | > 59.9 |
| COc1ccc(Cn2cc3c(c2-c2ccc(O)cc2)CCc2cnoc2-3)cc1 | 16.6 | 0.461 | 0.304 | 0.0822 | 0.596 µM | 6.36 | 33.4 | 0.633 | 15.9 | 0.34 | 0.13 | 17.8 | 0.241 | 10.4 | 4.2 | 0.365 | 13.9 | 23.6 | 0.295 | 14.3 |
| COc1ccc(N(C)c2nc(Cl)nc3ccn(C)c23)cc1 | > 100 | < 0.01 | < 0.01 | < 0.01 | < 0.01 µM | > 100 | 67.5 | < 0.01 | > 100 | < 0.01 | < 0.01 | > 100 | < 0.01 | > 100 | > 100 | < 0.01 | 1.79 | > 100 | < 0.01 | > 100 |
| O=C(Nc1cccnc1)c1cccc([N+](=O)[O-])c1 | > 100 | > 100 | > 100 | > 100 | > 100 µM | > 100 | > 100 | > 100 | > 100 | > 100 | > 100 | > 100 | > 100 | > 100 | > 100 | > 100 | > 100 | > 100 | > 100 | > 100 |
| CC(=O)Nc1ccc2c(c1)C(=O)c1cccc(F)c1-2 | > 100 | – | – | – | > 100 µM | > 100 | 97.7 | – | > 100 | – | – | > 100 | – | > 35 | > 100 | – | – | > 100 | – | > 100 |
| O=c1[nH]ccc2nc(-c3ccc(CN4CCC(c5nc(-c6ccccn6)n[nH]5)CC4)cc3)c(-c3ccccc3)cc12 | > 100 | 42.4 | 2.04 | 22.2 | > 64.2 µM | > 50.2 | > 21.3 | 20 | > 100 | 0.124 | 18.9 | > 100 | 14.7 | > 100 | > 100 | 4.85 | 0.121 | > 100 | 42.3 | > 100 |
| O=C1Nc2ccccc2/C1=C/c1ccccc1 | > 100 | – | – | – | 33.9 µM | 77.7 | 25.5 | – | > 100 | – | – | 42.7 | – | 33.2 | 71.6 | – | – | 66.1 | – | 98.3 |
| Oc1ccc2c3c1OC1C(=NN=C4CCC5(O)C6Cc7ccc(O)c8c7C5(CCN6CC5CC5)C4O8)CCC4(O)C(C2)N(CC2CC2)CCC314 (stereo unspecified) | 48.2 | – | – | – | 57.4 µM | 88.7 | 53.4 | – | 41.6 | – | – | 99 | – | 40.2 | > 68.1 | – | – | 84 | – | > 75.2 |
| CC1CC(C)/C(=N/NC(N)=O)C(C(O)CC2CCC(=O)NC2=O)C1 (stereo unspecified) | – | 3.57 | 2 | 1.7 | 18.1 µM | 94.1 | 31.5 | 2.71 | > 100 | 4.08 | – | > 100 | 3.05 | 42.4 | 97.2 | 6.77 | 2.31 | 57.5 | 2.9 | > 100 |
| COc1ccc(/C(=N\O)c2cc(OC)c(OC)c(OC)c2)c(OC)c1N | > 100 | 6.45 | 3.54 | 3.3 | > 100 µM | > 100 | > 100 | 5.52 | > 100 | 3.82 | 1.5 | > 100 | 2.11 | > 100 | > 100 | 4.44 | > 100 | > 100 | 3.97 | > 100 |
| O[C@@H]1CCCN1Cc1cc2cc3c(cc2c2cc(OCc4ccccc4)ccc12)OCO3 | 8.83 | – | 4.35 | 6.08 | 21.5 µM | 4.63 | 5.36 | 3.93 | 5.75 | 12.2 | 2.71 | – | 3.2 | 8.95 | 14.4 | 1.77 | 1.53 | 17.6 | 2.21 | 25.7 |
